6 molecules from patent US8710092B2, “Substituted indolo 4,3 FG quinolines useful for treating migraine” (Map Pharmaceuticals, Inc., priority 2009, dated 2014) can be followed below.

One may read the pEC50 as −log10 of the EC50, conventionally taken in molar units. One may read the pIC50 as −log10 of the IC50, conventionally taken in molar units. As a reminder, the melting point is the temperature of the solid-liquid transition.

SMILES strings stand for the structures. pEC50, pIC50: −log10 of the molar value. Like-named read-outs stand apart in the source and are kept apart here.

Data set [1] concerns the target T1, 5-HT2c receptor (Homo sapiens, UniProt P28335).
T1 sequence (P28335 33-458): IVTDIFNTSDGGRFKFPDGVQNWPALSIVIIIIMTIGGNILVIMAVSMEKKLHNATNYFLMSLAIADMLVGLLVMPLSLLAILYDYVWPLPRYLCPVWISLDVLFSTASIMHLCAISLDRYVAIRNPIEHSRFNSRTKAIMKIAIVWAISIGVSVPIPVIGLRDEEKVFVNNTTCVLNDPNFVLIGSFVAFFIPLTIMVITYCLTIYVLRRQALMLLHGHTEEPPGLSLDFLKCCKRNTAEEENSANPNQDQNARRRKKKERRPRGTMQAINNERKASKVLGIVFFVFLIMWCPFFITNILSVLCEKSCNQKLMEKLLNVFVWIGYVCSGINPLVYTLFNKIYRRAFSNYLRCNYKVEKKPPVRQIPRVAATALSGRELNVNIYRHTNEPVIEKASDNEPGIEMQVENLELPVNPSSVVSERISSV
In words: FLIPR agonist assay at the 5-HT2c receptor (analogous to Example 2). In kind it is cell-based. As to conditions: for agonist activity at the 5-HT2c receptor: FLIPR.

The target in data set [2] is T1, 5-HT2c receptor. The data set can be described thus: FLIPR antagonist assay at the 5-HT2c receptor (analogous to Example 3). In kind it is cell-based.
The target of data set [3] is T2, 5-HT2B receptor (Homo sapiens, UniProt P41595).
T2 construct: Millipore, Inc. (GPCR Profiler Service Laboratory, St. Charles, Mo.)
The data set can be described thus: FLIPR assay, agonist selectivity at the 5-HT2B receptor. In kind it is cell-based. Here is the method:
A FLIPR assay was conducted to monitor agonist selectivity for 1-methyl-dihydroergotamine against the 5-HT2B receptor. The assay was completed with an eight point, 4 fold serial dilution series starting with 10 μM concentration to obtain full dose response curve. Percentage activation values were determined for 1-methyl-dihydroergotamine on the 5-HT2B receptor. Agonist selectivity was determined upon initial addition of for 1-methyl-dihydroergotamine followed by a 5 minute incubation at 25° C. Following compound incubation, reference agonists were added at EC80. Agonist percentage activation determinations were obtained by assaying 1-methyl-dihydroergotamine and referencing the Emax control for the 5-HT2B receptor. The assay was performed by GPCR Profiler™ Service Laboratory, St. Charles, Mo., Millipore, Inc.

The target in data set [4] is 5-HT1B receptor (Homo sapiens, UniProt P28222). The data set can be described thus: Membrane based GTPγS assay, agonist activity at 5-HT1B. In kind it is biochemical. The conditions noted are these: 5-CT reference agonist, FIG. 5. Here is the method:
A membrane based GTPγS assay was conducted to monitor agonist activity of test compounds at the 5-HT1B receptor, summarized in FIG. 5. Test compounds were serially diluted to provide a wide concentration range sufficient to calculate EC50. The results are expressed as a percent of activation. 5-CT was used as a reference agonist.

In data set [5] the target is T3, 5-HT1A receptor (Homo sapiens, UniProt P08908).
T3 sequence (P08908 1-422): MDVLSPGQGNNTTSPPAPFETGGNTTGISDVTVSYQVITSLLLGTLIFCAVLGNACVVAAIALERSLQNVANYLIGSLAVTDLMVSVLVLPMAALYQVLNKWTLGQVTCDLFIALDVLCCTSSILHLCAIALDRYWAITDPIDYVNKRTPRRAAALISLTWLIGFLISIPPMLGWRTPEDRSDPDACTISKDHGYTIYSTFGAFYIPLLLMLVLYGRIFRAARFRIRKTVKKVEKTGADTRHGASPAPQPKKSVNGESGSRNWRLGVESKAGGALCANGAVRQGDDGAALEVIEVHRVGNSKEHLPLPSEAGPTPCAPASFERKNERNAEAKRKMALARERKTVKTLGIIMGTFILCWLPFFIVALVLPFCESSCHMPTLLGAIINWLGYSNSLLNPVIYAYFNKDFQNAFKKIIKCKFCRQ
The data set can be described thus: Cell based assay (cAMP modulation with HTRF detection), agonist activity at 5-HT1A. The conditions noted are these: percent of control response to 100 nM 8-OH-DPAT, FIG. 3. Here is the method: (§1) A cell based assay (cAMP modulation with HTRF detection) was conducted to monitor agonist activity of test compounds at the 5-HT1A receptor, summarized in FIG. 3. Test compounds were serially diluted to provide a wide concentration range sufficient to calculate EC50. The cAMP concentration was determined and results are expressed as a percent of the control response to 100 nM 8-OH-DPAT (control agonist).
A general note: In TR-FRET formats the signal depends on donor and acceptor labels being close together.

The target in data set [6] is 5-HT1D receptor (Homo sapiens, UniProt P28221). The data set can be described thus: Membrane based GTPγS assay, agonist activity at 5-HT1D. The conditions noted are these: 5-CT reference agonist, FIG. 6. In kind it is biochemical.
For data set [7], the target named is 5-HT7 receptor (Homo sapiens, UniProt P34969). The data set can be described thus: cAMP HTRF assay, antagonist activity at 5-HT7 (analogous to Example 6). It counts as cell-based. As to conditions: percent of control response to 300 nM serotonin, FIG. 4. Here is the method:
as §1
The assay was performed analogously to the assay described in Example 6. Antagonist activity of test compounds at the 5-HT7 receptor, using serotonin as a control reference agonist, was measured. Test compounds were serially diluted to provide a wide concentration range sufficient to calculate IC50. The results are expressed as a percent of the control response to 300 nM serotonin.

The target of data set [8] is T2, 5-HT2B receptor. In words: FLIPR assay, antagonist selectivity at the 5-HT2B receptor. In kind it is cell-based. The conditions noted are these: FIG. 2. Here is the method: A FLIPR assay was conducted to monitor antagonist selectivity for 1-methyl-dihydroergotamine against the 5-HT2B receptor. The assay was completed with an eight point, 4 fold serial dilution series starting with 10 μM concentration to obtain full dose response curve. Percentage inhibition values were determined for 1-methyl-dihydroergotamine on the 5-HT2B receptor. Antagonist percentage inhibition determinations were obtained by assaying 1-methyl-dihydroergotamine and referencing the Emax control for the 5-HT2B receptor. The assay above was performed by GPCR Profiler™ Service Laboratory, St. Charles, Mo., Millipore, Inc.

Where [9] appears, read: FLIPR, FIG. 1, read-out: EC50, agonism of the 5-HT2B receptor.

T2 sequence (P41595 whole entry): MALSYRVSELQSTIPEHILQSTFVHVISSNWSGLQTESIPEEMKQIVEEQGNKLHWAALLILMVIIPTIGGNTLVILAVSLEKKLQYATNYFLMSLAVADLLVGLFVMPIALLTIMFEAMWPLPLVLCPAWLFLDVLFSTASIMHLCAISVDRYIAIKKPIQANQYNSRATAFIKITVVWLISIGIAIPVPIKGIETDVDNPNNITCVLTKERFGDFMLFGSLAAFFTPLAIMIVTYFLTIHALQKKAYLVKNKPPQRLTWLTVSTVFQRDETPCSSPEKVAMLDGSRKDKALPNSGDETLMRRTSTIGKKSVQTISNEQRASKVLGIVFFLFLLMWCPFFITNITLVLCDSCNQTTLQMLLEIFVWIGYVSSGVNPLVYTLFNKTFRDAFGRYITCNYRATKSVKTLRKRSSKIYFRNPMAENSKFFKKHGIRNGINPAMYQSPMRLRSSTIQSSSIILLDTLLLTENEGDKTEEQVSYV
Chain of 5-HT7 receptor (P34969 whole entry): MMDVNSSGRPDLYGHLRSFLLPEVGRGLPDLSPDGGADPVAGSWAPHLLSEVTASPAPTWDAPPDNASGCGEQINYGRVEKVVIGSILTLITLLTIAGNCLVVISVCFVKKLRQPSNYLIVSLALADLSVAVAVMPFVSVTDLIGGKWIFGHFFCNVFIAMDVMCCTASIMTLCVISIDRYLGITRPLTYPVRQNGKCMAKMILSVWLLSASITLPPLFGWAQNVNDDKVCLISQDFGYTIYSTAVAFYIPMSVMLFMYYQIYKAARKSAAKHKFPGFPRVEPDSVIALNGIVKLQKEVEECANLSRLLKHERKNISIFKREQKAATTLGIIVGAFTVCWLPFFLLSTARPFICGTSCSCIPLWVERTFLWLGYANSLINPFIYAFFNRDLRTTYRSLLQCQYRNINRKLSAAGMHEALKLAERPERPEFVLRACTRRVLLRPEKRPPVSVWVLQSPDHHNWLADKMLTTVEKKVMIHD
Chain of 5-HT1D receptor (P28221 whole entry): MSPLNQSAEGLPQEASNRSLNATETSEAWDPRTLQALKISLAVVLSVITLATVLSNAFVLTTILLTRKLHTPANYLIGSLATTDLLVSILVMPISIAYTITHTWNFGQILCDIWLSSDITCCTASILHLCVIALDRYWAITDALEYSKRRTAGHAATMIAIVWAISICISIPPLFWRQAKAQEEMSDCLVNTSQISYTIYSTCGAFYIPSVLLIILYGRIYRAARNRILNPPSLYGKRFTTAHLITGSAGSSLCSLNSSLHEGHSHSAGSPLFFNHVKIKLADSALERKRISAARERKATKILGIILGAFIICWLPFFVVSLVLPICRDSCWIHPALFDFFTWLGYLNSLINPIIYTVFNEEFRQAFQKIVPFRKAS
Chain of 5-HT1B receptor (P28222 whole entry): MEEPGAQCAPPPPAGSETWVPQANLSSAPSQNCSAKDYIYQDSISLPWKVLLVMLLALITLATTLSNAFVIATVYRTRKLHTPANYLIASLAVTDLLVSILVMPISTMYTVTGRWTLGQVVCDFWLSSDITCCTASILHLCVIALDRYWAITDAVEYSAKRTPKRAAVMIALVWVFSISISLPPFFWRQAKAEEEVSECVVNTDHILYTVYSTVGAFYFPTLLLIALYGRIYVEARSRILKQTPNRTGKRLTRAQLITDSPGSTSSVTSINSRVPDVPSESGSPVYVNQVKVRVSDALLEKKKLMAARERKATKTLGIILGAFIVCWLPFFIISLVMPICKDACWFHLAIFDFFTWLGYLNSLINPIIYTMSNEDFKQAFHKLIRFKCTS

`CNS(=O)(=O)Cc1ccc2[nH]cc(CCN(C)C)c2c1` [sumatriptan]: the “agonist activity at the 5-HT2c receptor” value in data set [1] is reported as “no agonist activity”. Further, the “antagonist activity at the 5-HT2c receptor” value in data set [2] (FLIPR) was “no antagonist activity”.

In turn, `CN1CC(C(=O)N[C@]2(C)O[C@@]3(O)C4CCCN4C(=O)[C@H](Cc4ccccc4)N3C2=O)CC2c3cccc4c3c(cn4C)CC21` (stereo partly shown) [MAP0057, 1-Methyl-Dihydroergotamine] yielded a melting point of 216 to 218 °C. Besides, in data set [3] (FLIPR, dilution series starting with 10 μM, FIG. 1), the “agonist activity at the 5-HT2B receptor” value is listed as “no agonist activity”. Further, the “agonist activity at the 5-HT2c receptor” value in [1] is given as “no agonist activity”. The same molecule gave a pEC50 in [4] of 8.99. Also, in data set [2], the pIC50 was 6.34. Besides, the negative-log EC50 (pEC50) in [5] is 7.80. Moreover, the pEC50 in data set [6] was 9.35. The pIC50 in [7] is 7.16. This molecule also showed a pIC50 in data set [8] of 7.80.

For the molecule `CN1C[C@H](C(=O)N[C@]2(C)O[C@@]3(O)[C@@H]4CCCN4C(=O)[C@H](Cc4ccccc4)N3C2=O)C=C2c3cccc4[nH]cc(c34)C[C@H]21` [ergotamine], the negative logarithm of the EC50 (pEC50) is 6.80 in [3] and 5.30 in [1].

Take `CC(N)Cc1c[nH]c2ccc(O)cc12` (stereo not drawn) [alpha-Me-5HT]: in data set [3] (setting [9]), the pEC50 was 9.70.

Turning to `CCCN1C[C@H](CSC)C[C@@H]2c3cccc4[nH]cc(c34)C[C@H]21` [pergolide], in data set [3] (setting [9]), the pEC50 is 8.00. Also, the “agonist activity at the 5-HT2c receptor” value in data set [1] is reported as “no agonist activity”.

`CN1C[C@H](C(=O)N[C@]2(C)O[C@@]3(O)[C@@H]4CCCN4C(=O)[C@H](Cc4ccccc4)N3C2=O)C[C@@H]2c3cccc4[nH]cc(c34)C[C@H]21` [dihydroergotamine] gave a negative logarithm of the EC50 (pEC50) in [3] of 6.59. Further, the “agonist activity at the 5-HT2c receptor” value in data set [1] is given as “no agonist activity”. Besides, the pIC50 in data set [2] was 6.55.
